# Laboratory results as given in PMC13286198 (PLOS One, 2026).
# Experiment: Pharmacokinetic interaction study in rats, plasma by UPLC-MS/MS
# Assay type: in vivo, Sprague–Dawley rats
# Conditions: oral, n = 6
# Procedure: The sample size for each group of rats was calculated using the resource equation method [27]. The doses were chosen by converting the clinically recommended doses for patients to animal doses. […] The value of Km represents the equivalent dose ratio between humans and rats, calculated based on body surface area. […] The following groups received control solvents corresponding to each drug for a duration of seven consecutive days. […] Conversely, remaining groups were treated with their respective drugs at the aforementioned doses for seven consecutive days. […] Blood samples were centrifuged at 3,500 rpm for 10 min, and the supernatant was collected and stored at -80°C until processing for UPLC-MS/MS. The induction of anesthesia was performed using 5% isoflurane, and the concentration was maintained at 2% throughout the blood collection process. The blood was extracted from the eye venous plexus by well-trained professionals to minimize the animal's suffering. Following blood collection, rat liver, intestinal and kidney tissues were collected for molecular analysis on the seventh day post-treatment with the corresponding drugs for each group. Before euthanizing the animals, they were required to fast for at least 12 hours. Using sodium pentobarbital (2 g/kg) to put the animals into a deep state of anesthesia, Collect the required tissue samples and the rats were euthanized by cervical dislocation. […] The temperature maintained at 40 by gradient elution. […] Aliquots (8 μL) of these redissolved samples were used into the UPLC-MS/MS system for subsequent analysis. […] Analysis was conducted in a non-compartmental model. The metrics such as the area under the concentration-time curve (AUC), maximum plasma concentration (Cmax), time to reach Cmax (Tmax), elimination half-life (t1/2), plasma clearance volume per time unit (CLz/F), apparent volume of distribution (Vz), and mean residence time (MRT) were expressed as mean ± standard deviation (SD). Comparisons corresponding test groups were conducted using SPSS 25.0 software (SPSS Inc., Chicago, IL, USA).
Cmax (henagliflozin 1 mg/kg after telmisartan 8 mg/kg for 7 days),Vz (henagliflozin 1 mg/kg alone),Cmax ((control of the henagliflozin study)),SMILES
356.83 ± 59.55 ng/mL,3.87 ± 1.49 L/kg,,CCOc1ccc(Cc2cc([C@@]34OC[C@@](CO)(O3)[C@@H](O)[C@H](O)[C@H]4O)ccc2Cl)cc1F [henagliflozin]
,,160.33 ± 24.57 ng/mL,CCCc1nc2c(C)cc(-c3nc4ccccc4n3C)cc2n1Cc1ccc(-c2ccccc2C(=O)O)cc1 [telmisartan]
